According to patent publication US4861763A, “17 α-(substituted-methyl)-17β-hydroxy/esterified hydroxy steroids and their progestational use” (Research Triangle Institute, priority 1988, dated 1989):
Read-outs that look alike come from different tables or passages of the source.

What was measured:
estrogen receptor = biological target: T1, estrogen receptor (Rattus norvegicus, UniProt P06211); assay: relative binding affinity (RBA) for estrogen receptor from immature rat uterus
T1 construct: estrogen receptor from immature rat uterus; from tissue; host or cells: uterus cytosol of immature rats
T1 sequence (P06211 1-600): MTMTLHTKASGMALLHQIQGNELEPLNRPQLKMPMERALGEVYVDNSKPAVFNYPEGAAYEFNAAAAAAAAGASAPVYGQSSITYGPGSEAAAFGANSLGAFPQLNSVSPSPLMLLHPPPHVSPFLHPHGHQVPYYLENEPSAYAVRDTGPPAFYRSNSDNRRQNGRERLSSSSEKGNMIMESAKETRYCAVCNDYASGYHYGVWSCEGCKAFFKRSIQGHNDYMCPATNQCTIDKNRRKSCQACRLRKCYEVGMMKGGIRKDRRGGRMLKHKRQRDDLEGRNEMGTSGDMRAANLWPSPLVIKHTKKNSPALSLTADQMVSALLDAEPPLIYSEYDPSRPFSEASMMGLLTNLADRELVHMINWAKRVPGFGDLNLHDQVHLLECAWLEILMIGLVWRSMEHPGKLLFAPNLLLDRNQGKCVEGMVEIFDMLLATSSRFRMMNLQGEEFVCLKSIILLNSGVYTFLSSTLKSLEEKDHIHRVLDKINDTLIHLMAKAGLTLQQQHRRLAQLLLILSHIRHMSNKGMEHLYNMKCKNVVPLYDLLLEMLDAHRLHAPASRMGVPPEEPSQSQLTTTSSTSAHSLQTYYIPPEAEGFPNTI
Experimental: (§1) concentrations) with cytosol containing the receptor and a tritiumlabeled
(§2) required to displace 50% of bound radioligand is determined graphically

[1] = tested on: endometrial response due to subcutaneous administration of progesterone; assay: in vivo antiprogestational activity, oral (Clauberg test modified by McPhail); design: species or system rabbit
Description: (§3) The antiprogestational activity of compound XVa was studied after both intrauterine and oral administration. […] The methodology used for the intrauterine test has been described by D. A. McGinty et al [Endocrinology, 24, 829 (1939)]. For oral administration of test compounds the method used was analogous to that of Clauberg [Clauberg, Zentr. Gynakol, 54, 2757 (1930)] as modified by McPhail [J. Physiol. (London) 83, 145 (1935)].
(§4) ^a Immature female rabbits are primed with estrogen and dosed with
(§5) stained and scored for endometrial proliferation according to McPhail.

progesterone receptor = biological target: T2, progesterone receptor (Oryctolagus cuniculus, UniProt P06186); assay: relative binding affinity (RBA) for progesterone receptor in cytosol of estrogen-primed immature rabbit uterus; details: relative to progesterone = 100; average of 1-3 assays
T2 construct: cytosol obtained from estrogen-primedimmature rabbit uterus; from tissue; host or cells: uterus cytosol of estrogen-primed immature rabbits
T2 sequence (P06186 1-930): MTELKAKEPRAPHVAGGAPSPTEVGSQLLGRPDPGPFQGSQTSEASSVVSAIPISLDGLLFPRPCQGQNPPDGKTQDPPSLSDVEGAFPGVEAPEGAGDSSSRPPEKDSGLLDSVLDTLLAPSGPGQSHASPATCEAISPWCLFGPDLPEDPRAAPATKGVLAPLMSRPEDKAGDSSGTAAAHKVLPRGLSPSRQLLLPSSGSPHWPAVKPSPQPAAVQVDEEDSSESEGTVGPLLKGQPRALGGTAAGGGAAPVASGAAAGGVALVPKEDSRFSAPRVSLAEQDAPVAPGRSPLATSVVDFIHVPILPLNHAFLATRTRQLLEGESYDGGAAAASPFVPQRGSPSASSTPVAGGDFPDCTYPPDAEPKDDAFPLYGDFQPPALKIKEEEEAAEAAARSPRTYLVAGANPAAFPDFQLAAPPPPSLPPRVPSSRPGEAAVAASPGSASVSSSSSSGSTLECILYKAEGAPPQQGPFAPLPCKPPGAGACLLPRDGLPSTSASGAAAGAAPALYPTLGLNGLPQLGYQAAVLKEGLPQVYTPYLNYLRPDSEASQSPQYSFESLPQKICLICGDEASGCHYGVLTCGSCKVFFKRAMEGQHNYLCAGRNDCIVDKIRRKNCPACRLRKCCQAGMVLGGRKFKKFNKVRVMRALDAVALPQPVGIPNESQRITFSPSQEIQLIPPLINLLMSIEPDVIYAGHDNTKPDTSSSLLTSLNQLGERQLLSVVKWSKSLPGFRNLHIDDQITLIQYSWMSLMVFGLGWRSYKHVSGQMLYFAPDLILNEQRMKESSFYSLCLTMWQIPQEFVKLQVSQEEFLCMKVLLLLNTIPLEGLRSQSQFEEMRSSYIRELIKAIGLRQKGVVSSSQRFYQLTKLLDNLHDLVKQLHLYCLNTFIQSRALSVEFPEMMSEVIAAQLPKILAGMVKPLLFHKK
Experimental: as §1, §2

[2] = tested on: endometrial response due to subcutaneous administration of progesterone; assay: in vivo antiprogestational activity, intrauterine (McGinty test); design: species or system rabbit
Description: as §3, §4, §5

glucocorticoid receptor = biological target: T3, glucocorticoid receptor (Rattus norvegicus, UniProt P06536); assay: relative binding affinity (RBA) for glucocorticoid receptor from thymus of adrenalectomized rats; details: for RBA for Glucocorticoid receptor: relative to dexamethasone = 100, average of 1-3 assays; for binding to the glucocorticoid receptor, times the RBA of dexamethasone: compared with dexamethasone
T3 construct: glucocorticoid receptor from thymus of adrenalectomized rats; from tissue; host or cells: thymus cytosol of adrenalectomized rats
T3 sequence (P06536 1-795): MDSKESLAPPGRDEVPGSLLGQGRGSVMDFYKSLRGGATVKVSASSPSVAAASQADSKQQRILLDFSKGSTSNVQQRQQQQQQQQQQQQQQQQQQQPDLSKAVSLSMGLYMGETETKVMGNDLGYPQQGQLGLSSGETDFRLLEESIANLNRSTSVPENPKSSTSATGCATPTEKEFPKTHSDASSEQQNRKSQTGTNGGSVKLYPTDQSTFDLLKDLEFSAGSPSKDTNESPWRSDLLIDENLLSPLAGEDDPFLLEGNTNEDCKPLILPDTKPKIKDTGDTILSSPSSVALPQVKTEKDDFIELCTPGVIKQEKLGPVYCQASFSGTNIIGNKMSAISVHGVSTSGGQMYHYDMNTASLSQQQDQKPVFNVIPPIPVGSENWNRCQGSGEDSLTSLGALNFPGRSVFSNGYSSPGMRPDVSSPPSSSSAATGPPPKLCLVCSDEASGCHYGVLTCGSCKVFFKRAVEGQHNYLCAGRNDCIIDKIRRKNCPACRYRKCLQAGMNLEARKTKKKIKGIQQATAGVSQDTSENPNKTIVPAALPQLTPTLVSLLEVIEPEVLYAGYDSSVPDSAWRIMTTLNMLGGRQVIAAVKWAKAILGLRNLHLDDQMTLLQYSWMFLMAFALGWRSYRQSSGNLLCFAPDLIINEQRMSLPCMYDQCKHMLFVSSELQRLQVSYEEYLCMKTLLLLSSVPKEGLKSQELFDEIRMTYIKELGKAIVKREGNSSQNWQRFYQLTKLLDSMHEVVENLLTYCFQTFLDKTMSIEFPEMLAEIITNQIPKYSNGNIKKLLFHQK
Experimental: as §1, §2

[3] = vs levonorgestrel; cited from earlier work
[4] = in vivo; cited from earlier work
[5] = relative to estradiol = 100, average of 1-3 assays

Row | RBA for Estrogen receptor (estrogen receptor; [5]) | RBA for Progestin receptor (progesterone receptor) | RBA for Glucocorticoid receptor (glucocorticoid receptor) | Molecule | other results
1 |  | 33 | 74 | CN(C)c1ccc([C@H]2C[C@@]3(C)[C@@H](CC[C@@]3(O)CC#N)[C@@H]3CCC4=CC(=O)CCC4=C32)cc1 [XVa, 17α-Cyanomethyl-11β-(4-dimethylaminophenyl)-17β-hydroxy-4,9-estradien-3-one] | % Inhibition of Progestational Response ([1]; total dose per rabbit 5 mg): 7.8 ± 6.0%; % Inhibition of Progestational Response ([1]; total dose per rabbit 10 mg): 56.2 ± 7.1%; % Inhibition of Progestational Response ([1]; total dose per rabbit 20 mg): 79.1 ± 7.4%; % Inhibition of Progestational Response ([2]; total dose per rabbit 1.0 μg): 7.3 ± 4.5%; % Inhibition of Progestational Response ([2]; total dose per rabbit 5.0 μg): 26.7 ± 4.5%; % Inhibition of Progestational Response ([2]; total dose per rabbit 10.0 μg): 80.5 ± 9.8%; % Inhibition of Progestational Response ([2]; total dose per rabbit 40.0 μg): 96.3 ± 3.7%; RBA for Estrogen receptor (estrogen receptor): 0
2 | 0 | 23 | 100 | 11β-(4-Dimethylaminophenyl)-17β-hydroxy-17α-prop-2-yn-1-yl- 4,9-estradien-3-one [XVe] | 
3 |  |  |  | C[C@]12CCC3=C4CCC(=O)C=C4CC[C@H]3[C@@H]1CC[C@@]2(O)CC#N [STS 557] | oral potency as a gestagen relative to levonorgestrel [3]: ten times; progestational activity [4]: strong progestational activity
4 | 0 | 71 | 143 | 11β-(4-Dimethylaminophenyl)-17β-hydroxy-17α-azidomethyl-4,9-estradien-3-one [XVb] | 
5 | 0 | 64 | 274 | 11β-(4-Dimethylaminophenyl)-17β-hydroxy-17α-benzyl-4,9-estradien-3-one [XVd] | binding to the glucocorticoid receptor, times the RBA of dexamethasone (glucocorticoid receptor): ca. 3 times

Row | Molecule | RBA for Estrogen receptor (estrogen receptor; [5]) | RBA for Progestin receptor (progesterone receptor) | RBA for Glucocorticoid receptor (glucocorticoid receptor) | other results
6 | CC(=O)[C@H]1CC[C@H]2[C@@H]3CCC4=CC(=O)CC[C@]4(C)[C@H]3CC[C@]12C [Progesterone, reference compound] | 0 |  |  | 
7 | C[C@@H]1C[C@H]2[C@@H]3CCC4=CC(=O)C=C[C@]4(C)[C@@]3(F)[C@@H](O)C[C@]2(C)[C@@]1(O)C(=O)CO [Dexamethasone, reference compound] |  | 0.1 |  | 
8 | 11β-(4-Dimethylaminophenyl)-17β-hydroxy-17α-methoxymethyl-4,9-estradien-3-one [XVc] | 0 | 54 | 413 | binding to the glucocorticoid receptor, times the RBA of dexamethasone (glucocorticoid receptor): ca. 3 times
